Results on ten compounds are retold here after PubChem BioAssay (NCI).

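Assay format: 96-well plates, 48-hour exposure. Abbreviation: GI50, concentration required for 50% inhibition of growth. TGI: concentration producing complete growth inhibition.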

What all share (test): NCI anticancer screen, dose series, 48 h
The test system of experiment [1] is T-47D breast.
Experiment [2] concerns BT-549 breast.
Experiment [3] has as its system CAKI-1 renal.
The subject of experiment [4] is K-562 leukemia.
Experiment [5] relates to SF-539 CNS.
In experiment [6] the test system is UO-31 renal.
Experiment [7] has as its system HOP-62 NSCLC.
Experiment [8] concerns ACHN renal.
In experiment [9] the test system is CCRF-CEM leukemia.
For experiment [10], the system named is M14 melanoma.

Regarding `O=C1/C(=C/c2cccc([N+](=O)[O-])c2)COc2ccc(O)cc21`, the GI50 in experiment [1] is 2.24 µM; in experiment [2] it was 2.19 µM; in experiment [3], 1.78 µM; in [4], 0.506 µM; in experiment [5], 1.87 µM; in experiment [6], 1.51 µM. The GI50 in [7] was 3.21 µM; in experiment [8], 1.75 µM; in experiment [9], 0.408 µM; in [10] it was 1.72 µM. The TGI came to 6.3 µM in experiment [1]; 4.46 µM in experiment [2]; 3.58 µM in experiment [3]; 11.8 µM in experiment [4]; 3.73 µM in experiment [5]; 2.93 µM in experiment [6]. Moreover, the TGI amounted to 12.1 µM in experiment [7], 3.21 µM in experiment [8], 1.85 µM in experiment [9] and 3.54 µM in experiment [10].
With `Cc1coc2c1CC1(C)C(CCC(O)C1C)C2` (stereo not given), the TGI in experiment [1], in [2], in [3], in experiment [4], in experiment [5] and in experiment [7] was over 100 µM each time. The TGI in experiment [8], in experiment [9] and in experiment [10] was over 100 µM each time.
As to `O=S(=O)(NC1=NCCN1C(=S)SN1CCn2c1nsc2=S)c1ccc(OC(F)(F)F)cc1`, the GI50 is 13.9 µM in [1]; 17.5 µM in [3]; 4.02 µM in experiment [4]; 1.31 µM in experiment [5]; 20.5 µM in experiment [6]; 16.3 µM in experiment [7]. Further, the GI50 is 10.1 µM in [8], 4.01 µM in experiment [9] and 25.9 µM in [10]. For the same compound, the TGI in [1] stood at 44.4 µM; in experiment [3], 74.5 µM; in experiment [4], 19.8 µM; in experiment [5] it was 12.1 µM; in [6] it was 41.5 µM; in experiment [7], 33 µM. Also, the TGI in [8] is 23 µM; in experiment [9] it was over 100 µM; in experiment [10] it was over 100 µM.
As for `COc1ccc(C(=O)Cn2c(C(=O)c3ccccc3)nc(-c3ccc(OC)cc3)c2-c2ccc(OC)cc2)cc1`, the GI50 was over 100 µM in [1]; over 100 µM in experiment [2]; 52.7 µM in experiment [3]; over 100 µM in experiment [4]; 31.5 µM in experiment [5]; over 100 µM in experiment [6]. The GI50 in experiment [7] was 74 µM; in experiment [8] it was over 100 µM; in experiment [10] it was over 100 µM. For the same compound, the TGI in [1], in [2], in [3], in [4], in experiment [5] and in [6] was over 100 µM throughout. Also, the TGI in [7], in experiment [8] and in experiment [10] was over 100 µM in each case.
Turning to `CCN(CCO)CC1CCCC2CCCCC21` (stereo not given), the TGI in experiment [1], in experiment [2], in experiment [3], in experiment [4], in experiment [5] and in [6] was over 100 µM in each case. For the same compound, the TGI in [7], in experiment [8] and in [10] was over 100 µM in each case.
As to `Cc1ccc(C(=O)/C(=C/c2ccc([N+](=O)[O-])cc2)SCc2ccc(Cl)cc2)cc1`, the GI50 was 2.9 µM in [1]; 1.93 µM in experiment [2]; 1.7 µM in experiment [3]; 2.06 µM in experiment [5]; 1.2 µM in experiment [6]; 29.7 µM in experiment [7]. In addition, the GI50 was 1.69 µM in experiment [8], 0.283 µM in [9] and 2.52 µM in experiment [10]. Besides, the TGI was 36.7 µM in experiment [1]; 4.09 µM in experiment [2]; 4.9 µM in experiment [3]; 4.49 µM in [5]; 2.66 µM in [6]; over 100 µM in experiment [7]. Also, the TGI is 3.13 µM in [8], over 100 µM in experiment [9] and 19.4 µM in experiment [10].
As to `Nc1ccccc1SC(C[N+](=O)[O-])c1ccc2c(c1)OCO2` (stereo not given), the TGI in [1] was determined as 25.8 µM; in [2], 15.2 µM; in experiment [3], 26.6 µM; in experiment [4], 7 µM; in experiment [5] it was 4.98 µM; in experiment [6], 3.32 µM. Besides, the TGI came to 4.38 µM in experiment [7], 19 µM in experiment [8] and 3.15 µM in experiment [10].
For the compound `O=C(O)CSc1ccc([N+](=O)[O-])cc1[N+](=O)[O-]`, the TGI in experiment [1], in [2], in [3], in [4], in experiment [6] and in experiment [7] was over 100 µM throughout. Moreover, the TGI in experiment [8] and in [10] was over 100 µM throughout.
As for `Cc1cc(I)cc(CN(C)CCCCN2CCCCC2)c1O`, the GI50 in [1] was 16.1 µM; in [2], 8.05 µM; in experiment [3], 13.6 µM; in experiment [4], 4.03 µM; in experiment [5] it was 12 µM; in experiment [6], 14.2 µM. The GI50 in [7] is 14.4 µM; in experiment [8], 27.3 µM; in [10], 3.31 µM. The TGI came to 49.3 µM in experiment [1]; 21.5 µM in experiment [2]; 29.5 µM in [3]; 17.1 µM in experiment [4]; 25.1 µM in experiment [5]; 36.6 µM in [6]. In addition, the TGI in experiment [7] was determined as 28.3 µM; in experiment [8] it was 76.7 µM; in experiment [10], 12.4 µM.
Turning to `O=C(Nc1ccccc1OC(F)(F)F)Nc1n[nH]c2ccccc12`, the GI50 in [1] was 37.5 µM; in [2] it was 76.4 µM; in [3], 31 µM; in [4] it was 47.2 µM; in experiment [5] it was 30.5 µM; in [6], 17.4 µM. The GI50 was 19.6 µM in experiment [7], 31.1 µM in experiment [8] and 25.5 µM in experiment [10]. Moreover, the TGI in experiment [1], in [2], in [3], in experiment [4], in experiment [5] and in [6] was over 100 µM each time. The TGI was 73.4 µM in [7], over 100 µM in experiment [8] and over 100 µM in experiment [10].
